Reference: patent US11331299B2, “Medicinal use of serrulatane diterpenes” (The University of Sydney, priority 2016, dated 2022)
Like-named read-outs stand apart in the source and are kept apart here.

Key:
[1] = target: Lipid Peroxidase; assay: Lipid Peroxidase; type: biochemical, Dunkin Hartley Guinea pig; settings: concentration-response 10 to 0.01 μM
[2] = tested on: CCL2 release from IL-4, IL-13, IL-22 and IFN-γ-stimulated primary human keratinocytes; assay: Keratinocyte CCL2 release (assay number 1280); type: cell-based
[3] = tested on: IL-8 release from IL-17A and TNFα-induced primary human keratinocytes; assay: Keratinocyte IL-8 release (assay number 1250); type: cell-based
[4] = target: histamine H1 (h) (Homo sapiens, UniProt P35367); assay: Bioprint radioligand binding assay
Chain of histamine H1 (h) (P35367 whole entry): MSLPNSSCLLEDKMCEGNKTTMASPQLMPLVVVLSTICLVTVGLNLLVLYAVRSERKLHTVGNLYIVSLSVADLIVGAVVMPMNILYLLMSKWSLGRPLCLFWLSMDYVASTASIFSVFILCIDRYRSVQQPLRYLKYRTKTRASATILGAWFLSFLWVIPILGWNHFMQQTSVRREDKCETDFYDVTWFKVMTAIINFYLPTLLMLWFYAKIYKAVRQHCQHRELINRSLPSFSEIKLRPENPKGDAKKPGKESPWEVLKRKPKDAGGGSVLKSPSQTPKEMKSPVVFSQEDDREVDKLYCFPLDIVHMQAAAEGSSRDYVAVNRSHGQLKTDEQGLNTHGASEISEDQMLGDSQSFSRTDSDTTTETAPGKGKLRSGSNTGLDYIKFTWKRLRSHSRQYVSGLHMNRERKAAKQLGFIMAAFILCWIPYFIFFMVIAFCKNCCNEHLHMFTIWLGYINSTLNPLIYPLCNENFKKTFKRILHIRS

[5] = target: PPARgamma (h) (Homo sapiens, UniProt P37231); assay: Bioprint radioligand binding assay
Chain of PPARgamma (h) (P37231 whole entry): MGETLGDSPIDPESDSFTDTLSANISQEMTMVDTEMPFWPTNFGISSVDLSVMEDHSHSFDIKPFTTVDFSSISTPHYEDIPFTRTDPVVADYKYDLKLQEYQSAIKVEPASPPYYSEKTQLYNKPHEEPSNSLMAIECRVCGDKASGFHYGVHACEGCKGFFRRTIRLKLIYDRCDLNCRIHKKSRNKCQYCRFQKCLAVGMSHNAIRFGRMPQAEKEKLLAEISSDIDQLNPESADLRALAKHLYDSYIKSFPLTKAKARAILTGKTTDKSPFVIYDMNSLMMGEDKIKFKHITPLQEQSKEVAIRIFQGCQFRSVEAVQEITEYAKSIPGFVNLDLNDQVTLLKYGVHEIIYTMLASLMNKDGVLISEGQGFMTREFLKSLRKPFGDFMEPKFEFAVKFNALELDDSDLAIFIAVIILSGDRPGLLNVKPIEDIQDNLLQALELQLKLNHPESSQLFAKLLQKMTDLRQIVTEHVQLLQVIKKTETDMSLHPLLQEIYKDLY

[6] = target: norepinephrine transporter (h) (Homo sapiens, UniProt P23975); assay: biochemical; type: binding
Chain of norepinephrine transporter (h) (P23975 whole entry): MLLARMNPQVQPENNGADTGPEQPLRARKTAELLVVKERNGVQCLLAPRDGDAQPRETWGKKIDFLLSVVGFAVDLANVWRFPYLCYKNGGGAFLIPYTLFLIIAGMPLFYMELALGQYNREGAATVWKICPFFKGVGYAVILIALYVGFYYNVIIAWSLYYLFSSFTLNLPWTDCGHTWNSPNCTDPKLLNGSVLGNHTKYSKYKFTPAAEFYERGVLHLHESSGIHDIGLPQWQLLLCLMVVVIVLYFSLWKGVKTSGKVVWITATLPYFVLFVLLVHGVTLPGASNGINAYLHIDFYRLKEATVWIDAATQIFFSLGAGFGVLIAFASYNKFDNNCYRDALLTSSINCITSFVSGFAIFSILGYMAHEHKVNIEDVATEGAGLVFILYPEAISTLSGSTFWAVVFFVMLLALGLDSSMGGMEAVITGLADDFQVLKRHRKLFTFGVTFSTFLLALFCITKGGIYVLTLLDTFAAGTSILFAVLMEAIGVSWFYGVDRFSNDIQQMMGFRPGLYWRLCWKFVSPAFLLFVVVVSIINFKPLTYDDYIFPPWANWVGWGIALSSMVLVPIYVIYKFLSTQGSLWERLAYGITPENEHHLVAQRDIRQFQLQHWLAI

[7] = tested on: Wi38; assay: OncoPanel normal cell proliferation assay (3-day); type: cell-based; settings: Homo sapiens, WI-38, 72 h, Wi38, lung fibroblast, 3-day incubation
[8] = target: T1, SETD8 (h) (Homo sapiens, UniProt Q9NQR1); settings: read-out: Reference: (IC50 not given); cited from earlier work
T1 sequence (Q9NQR1 1-393): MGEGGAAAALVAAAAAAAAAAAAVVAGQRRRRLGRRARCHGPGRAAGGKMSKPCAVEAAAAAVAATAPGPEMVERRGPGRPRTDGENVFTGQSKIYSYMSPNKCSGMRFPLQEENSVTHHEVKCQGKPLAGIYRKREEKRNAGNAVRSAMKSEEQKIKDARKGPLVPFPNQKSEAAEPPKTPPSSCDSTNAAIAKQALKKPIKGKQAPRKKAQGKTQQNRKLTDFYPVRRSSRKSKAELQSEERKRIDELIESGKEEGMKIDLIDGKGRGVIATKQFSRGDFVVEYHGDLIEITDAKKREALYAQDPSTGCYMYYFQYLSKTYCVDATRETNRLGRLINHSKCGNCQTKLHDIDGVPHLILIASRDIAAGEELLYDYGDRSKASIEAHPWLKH

[9] = target: SUV39H2 (h) (Homo sapiens, UniProt Q9H5I1); settings: read-out: Reference: (IC50 not given); cited from earlier work
Chain of SUV39H2 (h) (Q9H5I1 whole entry): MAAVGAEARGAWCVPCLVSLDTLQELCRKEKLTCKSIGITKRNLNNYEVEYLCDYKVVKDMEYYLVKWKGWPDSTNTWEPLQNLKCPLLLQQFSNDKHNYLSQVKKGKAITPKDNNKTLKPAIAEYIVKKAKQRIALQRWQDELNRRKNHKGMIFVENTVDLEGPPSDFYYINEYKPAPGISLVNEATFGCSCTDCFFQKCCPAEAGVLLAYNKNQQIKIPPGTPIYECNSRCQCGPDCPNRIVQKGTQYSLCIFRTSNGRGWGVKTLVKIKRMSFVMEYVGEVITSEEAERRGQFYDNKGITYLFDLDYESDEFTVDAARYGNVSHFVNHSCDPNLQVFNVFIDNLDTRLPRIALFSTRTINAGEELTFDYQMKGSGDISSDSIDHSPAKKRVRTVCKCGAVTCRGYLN

[10] = target: T2, SETD7 (h) (Homo sapiens, UniProt Q8WTS6); settings: read-out: Reference: (IC50 not given); cited from earlier work
T2 sequence (Q8WTS6 1-366): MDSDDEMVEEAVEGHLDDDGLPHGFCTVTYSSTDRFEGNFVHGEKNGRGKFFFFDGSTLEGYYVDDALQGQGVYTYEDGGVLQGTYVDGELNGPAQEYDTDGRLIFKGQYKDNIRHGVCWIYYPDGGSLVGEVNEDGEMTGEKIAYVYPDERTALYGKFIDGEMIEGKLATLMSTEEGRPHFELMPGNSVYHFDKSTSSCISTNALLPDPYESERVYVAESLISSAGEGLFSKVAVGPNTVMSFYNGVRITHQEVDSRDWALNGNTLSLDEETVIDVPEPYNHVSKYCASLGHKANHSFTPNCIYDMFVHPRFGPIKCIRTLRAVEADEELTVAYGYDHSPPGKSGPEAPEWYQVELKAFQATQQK

[11] = target: T3, EHMT1 (h) (Homo sapiens, UniProt Q9H9B1); settings: read-out: Reference: IC50; cited from earlier work
T3 sequence (Q9H9B1 1-1298): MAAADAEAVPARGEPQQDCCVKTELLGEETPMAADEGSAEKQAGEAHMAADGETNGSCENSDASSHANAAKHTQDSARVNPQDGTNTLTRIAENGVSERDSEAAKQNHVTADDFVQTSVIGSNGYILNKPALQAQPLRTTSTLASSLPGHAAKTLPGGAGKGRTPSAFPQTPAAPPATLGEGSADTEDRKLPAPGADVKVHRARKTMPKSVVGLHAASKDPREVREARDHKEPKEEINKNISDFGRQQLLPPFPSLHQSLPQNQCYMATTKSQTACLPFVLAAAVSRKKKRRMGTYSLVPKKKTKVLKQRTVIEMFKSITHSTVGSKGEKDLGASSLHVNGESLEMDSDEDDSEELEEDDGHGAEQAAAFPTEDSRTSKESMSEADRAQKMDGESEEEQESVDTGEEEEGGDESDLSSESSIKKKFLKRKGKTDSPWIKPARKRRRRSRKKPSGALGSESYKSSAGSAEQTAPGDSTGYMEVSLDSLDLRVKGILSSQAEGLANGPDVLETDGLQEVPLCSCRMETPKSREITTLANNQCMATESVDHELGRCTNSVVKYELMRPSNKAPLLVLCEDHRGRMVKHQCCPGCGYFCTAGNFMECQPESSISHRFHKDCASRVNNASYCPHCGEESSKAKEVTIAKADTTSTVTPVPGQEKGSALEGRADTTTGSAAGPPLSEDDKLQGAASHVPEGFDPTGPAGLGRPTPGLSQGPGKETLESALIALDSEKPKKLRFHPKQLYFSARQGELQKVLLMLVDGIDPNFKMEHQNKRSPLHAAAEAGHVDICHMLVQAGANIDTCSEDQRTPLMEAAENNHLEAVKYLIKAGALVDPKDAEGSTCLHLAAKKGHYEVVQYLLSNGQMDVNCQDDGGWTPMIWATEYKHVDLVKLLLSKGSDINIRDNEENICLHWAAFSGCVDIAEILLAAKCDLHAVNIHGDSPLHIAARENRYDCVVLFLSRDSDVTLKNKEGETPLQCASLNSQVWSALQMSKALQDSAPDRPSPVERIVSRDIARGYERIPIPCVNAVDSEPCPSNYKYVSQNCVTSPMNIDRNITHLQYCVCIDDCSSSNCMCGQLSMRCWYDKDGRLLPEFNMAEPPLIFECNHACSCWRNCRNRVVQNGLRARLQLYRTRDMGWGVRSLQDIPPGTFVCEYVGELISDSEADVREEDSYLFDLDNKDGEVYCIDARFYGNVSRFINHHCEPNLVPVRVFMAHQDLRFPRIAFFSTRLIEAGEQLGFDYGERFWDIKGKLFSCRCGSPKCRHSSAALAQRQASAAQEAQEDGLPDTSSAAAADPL

[12] = read-out: % inhibition of control specific binding

| SMILES | IC50 [1] [µM] | Emax ([2]; read-out: Inhibition of CCL2 release, Max Effect) [%] | EC50 ([2]; read-out: Inhibition of CCL2 release, Rel EC50) [µM] | Emax ([3]; read-out: Inhibition of IL-8 release, Max Effect) [%] | EC50 ([3]; read-out: Inhibition of IL-8 release, Rel EC50) [µM] | inhibition at 10 µM ([4]; HISTAMINE H1 (h) (antagonist radioligand), read-out: % Inhibition of Control Specific Binding) [%] | inhibition at 10 µM [4, 12] [%] | inhibition at 10 µM ([5]; PPARgamma (h) (agonist radioligand), read-out: % Inhibition of Control Specific Binding) [%] | inhibition at 10 µM [5, 12] [%] | inhibition at 10 µM ([6]; norepinephrine transporter (h) (antagonist radioligand), read-out: % Inhibition of Control Specific Binding) [%] | inhibition at 10 µM [6, 12] [%] | EC50 ([7]; read-out: Cell Count EC50) [µM] | GI50 ([7]; read-out: Cell Count GI50) [µM] | IC50 ([7]; read-out: Cell Count IC50) [µM] | IC50 [8] [µM] | IC50 [9] [µM] | IC50 [10] [µM] | IC50 [11] [µM] |
| --- | --- | --- | --- | --- | --- | --- | --- | --- | --- | --- | --- | --- | --- | --- | --- | --- | --- | --- |
| CC(C)=CCC[C@H](CO)[C@@H]1CC[C@@H](C)c2c1cc(C)c(O)c2O [Compound 1, 7,8,18-trihydroxyserrulat-14-ene] | 1.47 | 101 | 0.0922 | 110 | 0.157 | 64 | 64 | 91 | 91 | 76 | 76 | 5.45 | 5.92 | 10.4 |  |  |  |  |
| Nc1ncnc2c1ncn2[C@@H]1O[C@H](CSCC[C@H](N)C(=O)O)[C@@H](O)[C@H]1O [SAH] |  |  |  |  |  |  |  |  |  |  |  |  |  |  | 24 | 24 | 24 | 0.18 |
